Data set [1] in a line: Cytotoxicity against mouse HT22 cells assessed as cell viability at 10 uM measured after 18 hrs by MTT assay relative to control. Conditions: read-out: Activity. It counts as cell-based, HT-22.
The target of data set [2] is hERG (KCNH2) (Homo sapiens, UniProt Q12809). As to the kind of experiment: Displacement of tracer red from human ERG at 10 uM by fluorescence polarization assay relative to control. Particulars: probe tracer red. (In fluorescence polarisation assays a small probe gives low polarisation when free and higher when bound to something large.)
Chain of hERG (KCNH2) (Q12809 whole entry): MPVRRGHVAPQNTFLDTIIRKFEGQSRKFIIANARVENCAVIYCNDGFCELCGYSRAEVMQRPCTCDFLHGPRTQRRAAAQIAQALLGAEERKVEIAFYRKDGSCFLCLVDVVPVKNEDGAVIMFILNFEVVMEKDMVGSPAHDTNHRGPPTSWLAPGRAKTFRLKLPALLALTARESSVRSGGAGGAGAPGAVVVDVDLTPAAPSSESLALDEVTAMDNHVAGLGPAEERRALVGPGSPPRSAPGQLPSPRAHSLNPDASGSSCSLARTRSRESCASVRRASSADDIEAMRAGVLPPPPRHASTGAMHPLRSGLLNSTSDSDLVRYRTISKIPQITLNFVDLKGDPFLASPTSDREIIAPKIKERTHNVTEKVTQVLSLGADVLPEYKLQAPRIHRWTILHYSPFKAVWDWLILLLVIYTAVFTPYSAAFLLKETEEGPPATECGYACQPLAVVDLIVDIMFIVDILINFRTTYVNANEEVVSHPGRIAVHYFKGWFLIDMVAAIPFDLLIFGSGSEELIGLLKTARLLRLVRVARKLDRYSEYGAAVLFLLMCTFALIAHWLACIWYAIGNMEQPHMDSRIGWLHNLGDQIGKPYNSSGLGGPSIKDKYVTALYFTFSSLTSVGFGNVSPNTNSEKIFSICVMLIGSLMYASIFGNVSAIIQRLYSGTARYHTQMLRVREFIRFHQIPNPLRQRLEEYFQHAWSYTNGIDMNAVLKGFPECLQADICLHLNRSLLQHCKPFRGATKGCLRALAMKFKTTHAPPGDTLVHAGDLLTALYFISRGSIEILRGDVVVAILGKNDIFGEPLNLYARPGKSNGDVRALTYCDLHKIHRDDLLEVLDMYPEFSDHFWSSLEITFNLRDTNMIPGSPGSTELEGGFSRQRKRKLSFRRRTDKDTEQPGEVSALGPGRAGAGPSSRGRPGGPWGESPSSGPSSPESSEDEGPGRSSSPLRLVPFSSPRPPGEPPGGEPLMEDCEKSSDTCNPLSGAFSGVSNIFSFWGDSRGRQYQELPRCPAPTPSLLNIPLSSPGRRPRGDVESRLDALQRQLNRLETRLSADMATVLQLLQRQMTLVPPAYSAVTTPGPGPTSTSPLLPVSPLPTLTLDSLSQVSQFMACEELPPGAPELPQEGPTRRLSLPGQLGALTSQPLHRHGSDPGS
The species named for data set [3] is Mus musculus. Conditions: ICR, 25 mg/kg.
The species entered for data set [4] is Mus musculus. The experiment in a line: animal or person. Particulars: ICR, central, 24 h, read-out: INH.
A short description of data set [5]: Stability in mouse liver microsomes assessed as parent compound remaining measured after 30 mins. It counts as ADME, Microsome. Particulars: read-out: Stability. In general terms: Microsomes from liver hold many membrane-bound enzymes, among them those of drug oxidation.
Data set [6] relates to Mus musculus. The experiment in a line: Neuroprotection in human amyloid beta (3 to 40 residues)-induced ICR mouse model of Alzheimer's disease assessed as inhibition of human amyloid beta N3pE-40 level in brain at 25 mg/kg, ip measured after 24 hrs by sandwich ELISA relative to control. It counts as functional.
The nature of data set [7]: Stability in human liver microsomes assessed as parent compound remaining measured after 30 mins. It is filed as ADME, Microsome. Particulars: read-out: Stability.

Calls of active or inactive are those of the source. No cut-off for these calls is given here.

For the compound `COc1ccc(N(Cc2cccc(Cl)c2)C(=S)NCCCn2cncc2C)cc1OC`, in data set [1], the viability at 18 h, 10 µM was determined as 88.2%. Moreover, in data set [2], the inhibition (commonly the relative decrease from the control value, in per cent) at 10 µM worked out at 86%. The inhibition entry in data set [3] is “inactive”.
As to `COc1ccc(N(Cc2ccncc2)C(=S)NCCCn2cncc2C)cc1OC`, the viability at 18 h, 10 µM in data set [1] is 100%. The compound further yielded an inhibition at 10 µM in data set [2] of 32.3%. Also, in data set [4], the inhibition in vivo at 25 mg/kg came out at 11.6%.
For the compound `CCN(C(=S)NCCCn1cncc1C)c1ccc(OC)c(OC)c1`, the viability at 18 h, 10 µM in data set [1] was 88.4%. The inhibition entry in data set [3] is “inactive”.
Consider `COc1ccc(N(CC2CCCC2)C(=S)NCCCn2cncc2C)cc1OC`, for which the viability at 18 h, 10 µM in data set [1] turned out to be 100%. In addition, in data set [2], testing at 10 µM gave an inhibition of 60%. For the same compound, the inhibition in vivo at 25 mg/kg in data set [4] is 2.96%.
In the same order, the values of `COc1ccc(N(Cc2cccnc2)C(=S)NCCCn2cncc2C)cc1OC` are 89.3%, 34.5% and 5.31%.
Turning to `COc1ccc(N(Cc2cccnc2)C(=O)NCCCn2cncc2C)cc1OC`, the remaining at 0.5 h in data set [5] is 12.8%; in data set [7] it was 44%. The viability at 18 h, 10 µM in data set [1] worked out at 100%. The compound further returned an inhibition at 10 µM in data set [2] of 33.2%. The inhibition in vivo at 25 mg/kg amounted to 22.9% in data set [6] and 26% in data set [4].
As for `COc1ccc(N(CC(C)C)C(=O)NCCCn2cncc2C)cc1OC`, in data set [1], the viability at 18 h, 10 µM is 100%. In data set [2], this compound came in with an inhibition at 10 µM of 23.7%. In data set [3], the inhibition result was “inactive”.
As to `COc1ccc(N(Cc2ccc(F)cc2)C(=S)NCCCn2cncc2C)cc1OC`, the viability at 18 h, 10 µM in data set [1] came to 100%. The compound also gave an inhibition at 10 µM in data set [2] of 83.5%. Also, the inhibition result in data set [3] was “inactive”.
Turning to `COc1ccc(N(C(=S)NCCCn2cncc2C)C(C)C)cc1OC`, the viability at 18 h, 10 µM in data set [1] turned out to be 100%. The compound further gave an inhibition at 10 µM in data set [2] of 46.3%. In data set [4], the inhibition in vivo at 25 mg/kg is 6%.
As for `COc1ccc(N(C(=S)NCCCn2cncc2C)C2CCCCC2)cc1OC`, the viability at 18 h, 10 µM in data set [1] is 78.3%. Besides, the inhibition at 10 µM in data set [2] is 59.4%. Also, the inhibition in vivo at 25 mg/kg in data set [4] was 4.01%.
Regarding `COc1ccc(N(C(=S)NCCCn2cncc2C)C2CCC2)cc1OC`, the viability at 18 h, 10 µM in data set [1] turned out to be 86.7%. For the same compound, in data set [2], the inhibition at 10 µM is 11.5%. Also, the inhibition result in data set [3] was “inactive”.
For `COc1ccc(N(CCCCc2ccnc(NCCN)c2)C(=O)NCCCn2cncc2C)cc1OC`, the viability at 18 h, 10 µM in data set [1] was determined as 82.2%. The compound also returned an inhibition at 10 µM in data set [2] of 40.8%. Further, the inhibition in vivo at 25 mg/kg in data set [4] amounted to 13.7%.
Turning to `COc1ccc(N(Cc2ccc(F)cc2)C(=O)NCCCn2cncc2C)cc1OC`, the viability at 18 h, 10 µM in data set [1] was 90.7%. The inhibition at 10 µM in data set [2] stood at 40.6%. The inhibition result in data set [3] is “inactive”.
In the case of `COc1ccc(N(C(=O)NCCCn2cncc2C)C2CCCCC2)cc1OC`, the viability at 18 h, 10 µM in data set [1] worked out at 88.6%. The same compound came in with an inhibition at 10 µM in data set [2] of 12.2%. Also, the inhibition entry in data set [3] is “inactive”.
As to `COc1ccc(N(Cc2ccccc2)C(=S)NCCCn2cncc2C)cc1OC`, the viability at 18 h, 10 µM in data set [1] is 80.4%. The compound also yielded an inhibition at 10 µM in data set [2] of 71.5%. Also, the inhibition in vivo at 25 mg/kg in data set [4] was 15.3%.
As for `COc1ccc(N(Cc2ccc(Cl)cc2)C(=S)NCCCn2cncc2C)cc1OC`, the viability at 18 h, 10 µM in data set [1] was 100%. Moreover, in data set [2], the inhibition at 10 µM worked out at 86.8%. Further, the inhibition in vivo at 25 mg/kg in data set [4] came to 0.73%.
For `COc1ccc(N(Cc2cccc(F)c2)C(=S)NCCCn2cncc2C)cc1OC` the same measures were 91.7%, 77.6% and 6.66%.
On to `COc1ccc(N(CC2CCCC2)C(=O)NCCCn2cncc2C)cc1OC`, for which, in data set [1], the viability at 18 h, 10 µM was 100%. In data set [2], this compound gave an inhibition at 10 µM of 29.6%. For the same compound, the inhibition in vivo at 25 mg/kg in data set [4] came to 2.96%.
In the same order, the values of `COc1ccc(N(C(=S)NCCCn2cncc2C)C2CCCC2)cc1OC` are 81.7%, 31.8% and 1.17%.
With `COc1ccc(N(CC(C)C)C(=S)NCCCn2cncc2C)cc1OC`, the viability at 18 h, 10 µM in data set [1] stood at 100%. Besides, in data set [2], the inhibition at 10 µM was 39.9%. For the same compound, the inhibition result in data set [3] was “inactive”.
As to `COc1ccc(N(CCCCc2ccnc(N)c2)C(=O)NCCCn2cncc2C)cc1OC`, the remaining at 0.5 h in data set [5] is 21.6%; in data set [7], 43.1%. Moreover, the viability at 18 h, 10 µM in data set [1] is 100%. The inhibition at 10 µM in data set [2] worked out at 48%. Besides, the inhibition in vivo at 25 mg/kg was found to be 22.7% in data set [6] and 24.4% in data set [4].

For the origin of these results see ChEMBL document CHEMBL4373720, “Discovery of Conformationally Restricted Human Glutaminyl Cyclase Inhibitors as Potent Anti-Alzheimer's Agents by Structure-Based Design” (J Med Chem, 2019).
